In US20260285850A1, “SUBSTITUTED OXAZOLIDINONES AND IMIDAZOLINONES AS HERBICIDES” (FMC CORPORATION, priority 2023, published 2026):

Key:
Type in all cases: in vivo
[1] = tested on: barnyardgrass (Echinochloa crus-galli); test: Test A preemergence soil spray, visual injury rating 0-100; details: 10 days
How it was run: (§1)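 Visual injury ratings (0, no effect; 100, complete control) were assigned relative to untreated plants 10 days after treatment. Test chemicals, formulated with a surfactant-containing non-phytotoxic solvent, were applied in loam-sand soil either as a directed soil spray before emergence or to emerged plants, and plants were kept in a greenhouse.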

[2] = tested on: blackgrass (Alopecurus myosuroides); test: as above; details: 10 days
How it was run: as §1

corn (Zea mays) [3] = test: as above; details: 10 days
How it was run: as §1

[4] = tested on: green foxtail (Setaria viridis); test: as above; details: 10 days
How it was run: as §1

kochia (Bassia scoparia) [5] = test: as above; details: 10 days
How it was run: as §1

[6] = tested on: oat, wild (wild oat, Avena fatua); test: as above; details: 10 days
How it was run: as §1

[7] = tested on: palmer (palmer amaranth, palmer pigweed, Amaranthus palmeri); test: as above; details: 10 days
How it was run: as §1

[8] = tested on: ragweed (common ragweed, Ambrosia artemisiifolia); test: as above; details: 10 days
How it was run: as §1

[9] = tested on: ryegrass, Italian (italian ryegrass, Lolium multiflorum); test: as above; details: 10 days
How it was run: as §1

soybean (Glycine max) [10] = test: as above; details: 10 days
How it was run: as §1

[11] = tested on: wheat (Triticum aestivum); test: as above; details: 10 days
How it was run: as §1

[12] = tested on: barnyardgrass (Echinochloa crus-galli); test: Test A postemergence application, visual injury rating 0-100
How it was run: as §1

[13] = tested on: blackgrass (Alopecurus myosuroides); test: as above
How it was run: as §1

corn (Zea mays) [14] = test: as above
How it was run: as §1

[15] = tested on: galium (catchweed bedstraw, Galium aparine); test: as above
How it was run: as §1

[16] = tested on: green foxtail (Setaria viridis); test: as above
How it was run: as §1

kochia (Bassia scoparia) [17] = test: as above
How it was run: as §1

[18] = tested on: oat, wild (wild oat, Avena fatua); test: as above
How it was run: as §1

[19] = tested on: palmer (palmer amaranth, palmer pigweed, Amaranthus palmeri); test: as above
How it was run: as §1

[20] = tested on: ragweed (common ragweed, Ambrosia artemisiifolia); test: as above
How it was run: as §1

[21] = tested on: ryegrass, Italian (italian ryegrass, Lolium multiflorum); test: as above
How it was run: as §1

soybean (Glycine max) [22] = test: as above
How it was run: as §1

[23] = tested on: wheat (Triticum aestivum); test: as above
How it was run: as §1

[24] = tested on: barnyardgrass (Echinochloa crusgalli); test: Test B flooded paddy test, visual plant response rating 0-100; details: 250 g ai/ha, Flood, applied to paddy water, evaluated after 13 days
How it was run: (§2)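 Treatment occurs at the 2-leaf stage by adding compound to floodwater standing 3 cm above the soil, a level kept for the whole test. Plants stay in the greenhouse 13 days before visual comparison with controls.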

[25] = tested on: ducksalad (Heteranthera limosa); test: as above; details: 250 g ai/ha, Flood, applied to paddy water, evaluated after 13 days
How it was run: as §2

rice (Oryza sativa) = test: as above; details: 250 g ai/ha, Flood, applied to paddy water, evaluated after 13 days
How it was run: as §2

[26] = tested on: sedge, umbrella (small-flower umbrella sedge, Cyperus difformis); test: as above; details: 250 g ai/ha, Flood, applied to paddy water, evaluated after 13 days
How it was run: as §2

[27] = 62 g ai/ha, 0 = no effect, 100 = complete control
[28] = 62 g ai/ha, postemergence, 10 days, 0 = no effect, 100 = complete control
[29] = Postemergence, 16 g ai/ha, greenhouse 10 days, 0 no effect, 100 complete control

In the case of `C=CC1(C(=O)NC2COC(C(=O)OC)C2)CN(c2cc(F)cc(F)c2)C(=O)O1` (centres unmarked) [Compound 171], the “Barnyardgrass plant response rating” value ([1]; 16 g ai/ha, 0 to 100 scale) is reported as 0, the “Barnyardgrass plant response rating (0-100)” value [1, 27] is reported as 90 and the “Blackgrass plant response rating” value ([2]; 16 g ai/ha, 0 to 100 scale) is reported as 20. The “Blackgrass plant response rating (0-100)” value [2, 27] was 90, the “Corn plant response rating” value (corn (Zea mays) [3]; 16 g ai/ha, 0 to 100 scale) was 0 and the “Corn plant response rating (0-100)” value (corn (Zea mays) [3]; [27]) was 40. The “Foxtail, Green plant response rating” value ([4]; 16 g ai/ha, 0 to 100 scale) was 0, the “Foxtail, Green plant response rating (0-100)” value [4, 27] was 90 and the “Kochia plant response rating” value (kochia (Bassia scoparia) [5]; 16 g ai/ha, 0 to 100 scale) was 30. For the same molecule, the “Kochia plant response rating (0-100)” value (kochia (Bassia scoparia) [5]; [27]) was 40, the “Oat, Wild plant response rating” value ([6]; 16 g ai/ha, 0 to 100 scale) was 20 and the “Oat, Wild plant response rating (0-100)” value [6, 27] was 90. The “Pigweed, Palmer plant response rating” value ([7]; 16 g ai/ha, 0 to 100 scale) was 0, the “Pigweed, Palmer plant response rating (0-100)” value [7, 27] was 70 and the “Ragweed plant response rating” value ([8]; 16 g ai/ha, 0 to 100 scale) was 0. The “Ragweed plant response rating (0-100)” value [8, 27] was 0, the “Ryegrass, Italian plant response rating” value ([9]; 16 g ai/ha, 0 to 100 scale) was 20 and the “Ryegrass, Italian plant response rating (0-100)” value [9, 27] was 90. The “Soybean plant response rating” value (soybean (Glycine max) [10]; 16 g ai/ha, 0 to 100 scale) was 0, the “Soybean plant response rating (0-100)” value (soybean (Glycine max) [10]; [27]) was 20 and the “Wheat plant response rating” value ([11]; 16 g ai/ha, 0 to 100 scale) was 60. For the same molecule, the “Wheat plant response rating (0-100)” value [11, 27] was 90, the “Barnyardgrass plant response rating (0-100)” value [12, 28] was 80 and the “Barnyardgrass plant response rating (0 to 100 scale)” value [12, 29] was 70. For the same molecule, the “Blackgrass plant response rating (0-100)” value [13, 28] was 70, the “Blackgrass plant response rating (0 to 100 scale)” value [13, 29] was 70 and the “Corn plant response rating (0-100)” value (corn (Zea mays) [14]; [28]) was 90. For the same molecule, the “Corn plant response rating (0 to 100 scale)” value (corn (Zea mays) [14]; [29]) was 80, the “Galium plant response rating (0-100)” value [15, 28] was 80 and the “Galium plant response rating (0 to 100 scale)” value [15, 29] was 80. For the same molecule, the “Foxtail, Green plant response rating (0-100)” value [16, 28] was 90, the “Foxtail, Green plant response rating (0 to 100 scale)” value [16, 29] was 80 and the “Kochia plant response rating (0-100)” value (kochia (Bassia scoparia) [17]; [28]) was 80. The “Kochia plant response rating (0 to 100 scale)” value (kochia (Bassia scoparia) [17]; [29]) was 60, the “Oat, Wild plant response rating (0-100)” value [18, 28] was 90 and the “Oat, Wild plant response rating (0 to 100 scale)” value [18, 29] was 90. For the same molecule, the “Pigweed, Palmer plant response rating (0-100)” value [19, 28] was 80, the “Pigweed, Palmer plant response rating (0 to 100 scale)” value [19, 29] was 60 and the “Ragweed plant response rating (0-100)” value [20, 28] was 30. For the same molecule, the “Ragweed plant response rating (0 to 100 scale)” value [20, 29] was 30, the “Ryegrass, Italian plant response rating (0-100)” value [21, 28] was 70 and the “Ryegrass, Italian plant response rating (0 to 100 scale)” value [21, 29] was 20. For the same molecule, the “Soybean plant response rating (0-100)” value (soybean (Glycine max) [22]; [28]) was 80, the “Soybean plant response rating (0 to 100 scale)” value (soybean (Glycine max) [22]; [29]) was 70 and the “Wheat plant response rating (0-100)” value [23, 28] was 90. The “Wheat plant response rating (0 to 100 scale)” value [23, 29] was 80, the “Plant response rating, Barnyardgrass (0 to 100 scale, 0 is no effect and 100 is complete control)” value [24] was 60 and the “Plant response rating, Ducksalad (0 to 100 scale, 0 is no effect and 100 is complete control)” value [25] was 50. The “Plant response rating, Rice (0 to 100 scale, 0 is no effect and 100 is complete control)” value (rice (Oryza sativa)) was 45 and the “Plant response rating, Sedge, Umbrella (0 to 100 scale, 0 is no effect and 100 is complete control)” value [26] was 45.
